Read-outs that look alike come from different tables or passages of the source.
Columns and labels:
[1] = tested on: P. falciparum 3D7 parasites; experiment: P. falciparum growth inhibition assay, 2-cycle (120 h treatment), delayed-death screen and dose-response; format: cell-based, Plasmodium falciparum; conditions: for activity at 2 µg/mL: Plasmodium falciparum
[2] = tested on: P. falciparum 3D7 parasites; experiment: P. falciparum growth inhibition assay, 1-cycle (72 h treatment), SYBR DNA staining (library screen at 2 μg/mL and dose-response); format: cell-based, Plasmodium falciparum; conditions: for activity at 2 µg/mL: Plasmodium falciparum
[3] = tested on: T. gondii RH strain (RH-Tub-eYFP) tachyzoites; experiment: microbe, parasite or virus in culture; format: cell-based, Toxoplasma gondii; conditions: 72 h; for percent parasite growth at 2 µg/mL: Toxoplasma gondii
[4] = P. falciparum, 120 h, parasite screen 2 μg/mL, % growth, replicate 1
[5] = P. falciparum, 120 h, parasite screen 2 μg/mL, % growth, replicate 2
[6] = P. falciparum, 72 h, parasite screen 2 μg/mL, % growth, replicate 1
[7] = P. falciparum, 72 h, parasite screen 2 μg/mL, % growth, replicate 2
[8] = T. gondii, parasite screen 2 μg/mL, % growth, replicate 1
[9] = T. gondii, parasite screen 2 μg/mL, % growth, replicate 2
[10] = T. gondii, parasite screen 2 μg/mL, % growth, replicate 1, read-out: Tg_72h_%Growth_Rep1
[11] = T. gondii, parasite screen 2 μg/mL, % growth, replicate 2, read-out: Tg_72h_%Growth_Rep2
[12] = P. falciparum, 120 h, screen at 2 μg/mL, replicate 1
[13] = P. falciparum, 120 h, screen at 2 μg/mL, replicate 2
[14] = P. falciparum, 72 h, screen at 2 μg/mL, replicate 1
[15] = P. falciparum, 72 h, screen at 2 μg/mL, replicate 2
[16] = T. gondii, screen at 2 μg/mL, replicate 1
[17] = T. gondii, screen at 2 μg/mL, replicate 2
[18] = library screen at 2 μg/mL, 120 h, % growth, replicate 1
[19] = library screen at 2 μg/mL, 120 h, % growth, replicate 2
[20] = library screen at 2 μg/mL, 72 h, % growth, replicate 1
[21] = library screen at 2 μg/mL, 72 h, % growth, replicate 2
[22] = library screen at 2 μg/mL, % growth, replicate 1
[23] = library screen at 2 μg/mL, % growth, replicate 2
[24] = T. gondii, screen at 2 μg/mL, replicate 1, read-out: Tg_72h_%Growth_Rep1
[25] = T. gondii, screen at 2 μg/mL, replicate 2, read-out: Tg_72h_%Growth_Rep2

## CC(=O)O[C@H]1C[C@]2(C)[C@H]3CC[C@]4(C)Oc5oc(C)cc(=O)c5C[C@H]4[C@]3(C)CC[C@H]2C(C)(C)[C@H]1OC(C)=O [Sartorypyrone B]
[1]; [4]
  Pf_120h_%Growth_Rep1: 68.83%
[1]; [5]
  Pf_120h_%Growth_Rep2: 125.68%
[2]; [6]
  Pf_72h_%Growth_Rep1: 77.80%
[2]; [7]
  Pf_72h_%Growth_Rep2: 111.47%
[3]; [8]
  Tg_72h_%Growth_Rep1: 114.72%
[3]; [9]
  Tg_72h_%Growth_Rep2: 87.54%

## COC1CC(OC2C(C)OC(OC3C(C)=CCC4CC(CC5(CCC(C)C(C(C)C)O5)O4)OC(=O)C4C=C(C)C(O)C5OCC(=CC=CC3C)C45O)CC2OC)OC(C)C1O (stereo not drawn) [BIA-I1117]
[1]; P. falciparum 3D7, 120 h, library screen at 2 μg/mL, % growth, replicate 1
  Pf_120h_%Growth_Rep1: 88.89%
[1]; P. falciparum 3D7, 120 h, library screen at 2 μg/mL, % growth, replicate 2
  Pf_120h_%Growth_Rep2: 109.63%
[2]; P. falciparum 3D7, 72 h, library screen at 2 μg/mL, % growth, replicate 1
  Pf_72h_%Growth_Rep1: 83.64%
[2]; P. falciparum 3D7, 72 h, library screen at 2 μg/mL, % growth, replicate 2
  Pf_72h_%Growth_Rep2: 117.79%
[3]; T. gondii RH, library screen at 2 μg/mL, % growth, replicate 1
  Tg_72h_%Growth_Rep1: 121.89%
[3]; T. gondii RH, library screen at 2 μg/mL, % growth, replicate 2
  Tg_72h_%Growth_Rep2: 92.41%

## O=C(O)c1ccc[nH]1 [Pyrrole-2-carboxylic acid]
[1]; 3D7, P. falciparum, 120 h, parasite screen 2 μg/mL, % growth, replicate 1, read-out: Pf_120h_%Growth_Rep1
  activity at 2 µg/mL: 88.6%
[1]; 3D7, P. falciparum, 120 h, parasite screen 2 μg/mL, % growth, replicate 2, read-out: Pf_120h_%Growth_Rep2
  activity at 2 µg/mL: 136%
[2]; 3D7, P. falciparum, 72 h, parasite screen 2 μg/mL, % growth, replicate 1, read-out: Pf_72h_%Growth_Rep1
  activity at 2 µg/mL: 86.7%
[2]; 3D7, P. falciparum, 72 h, parasite screen 2 μg/mL, % growth, replicate 2, read-out: Pf_72h_%Growth_Rep2
  activity at 2 µg/mL: 115%
[3]; [10]
  percent parasite growth at 2 µg/mL: 130%
[3]; [11]
  percent parasite growth at 2 µg/mL: 86.8%

## O=C(O)c1nccc2c1[nH]c1ccccc12 [Carboline 1-carboxylic acid, β-]
[1]; [12]
  Pf_120h_%Growth_Rep1: 166.51%
[1]; [13]
  Pf_120h_%Growth_Rep2: 96.73%
[2]; [14]
  Pf_72h_%Growth_Rep1: 89.67%
[2]; [15]
  Pf_72h_%Growth_Rep2: 90.01%
[3]; [16]
  Tg_72h_%Growth_Rep1: 4.34%
[3]; [17]
  Tg_72h_%Growth_Rep2: 7.03%

## COc1cc(O)c2c(c1)C(=O)c1cc3c(c(O)c1C2=O)C(OC1OC(C)C(OC)C(O)C1OC)C(OC)C(C)(O)C3=O (stereo not drawn) [Steffimycin B]
[1]; [4]
  Pf_120h_%Growth_Rep1: 57.65%
[1]; [5]
  Pf_120h_%Growth_Rep2: 80.04%
[2]; [6]
  Pf_72h_%Growth_Rep1: 70.82%
[2]; [7]
  Pf_72h_%Growth_Rep2: 45.75%
[3]; [8]
  Tg_72h_%Growth_Rep1: 26.05%
[3]; [9]
  Tg_72h_%Growth_Rep2: 22.83%

## Cn1ncnc2c(=O)n(C)c(=O)nc1-2 [Toxoflavin]
[1]; [12]
  Pf_120h_%Growth_Rep1: 16.11%
[1]; [13]
  Pf_120h_%Growth_Rep2: 20.32%
[2]; [14]
  Pf_72h_%Growth_Rep1: 6.97%
[2]; [15]
  Pf_72h_%Growth_Rep2: -1.92%
[3]; [16]
  Tg_72h_%Growth_Rep1: 3.96%
[3]; [17]
  Tg_72h_%Growth_Rep2: 6.88%

## CC[C@@H]1CCN[C@H](C(=O)N[C@@H]([C@H]2O[C@H](SC)[C@H](O)[C@@H](O)[C@H]2O)[C@H](C)Cl)C1 [BIA-P1459]
[1]; P. falciparum 3D7, 120 h, parasite screen at 2 μg/mL, % growth, replicate 1
  Pf_120h_%Growth_Rep1: 9.76%
[1]; P. falciparum 3D7, 120 h, parasite screen at 2 μg/mL, % growth, replicate 2
  Pf_120h_%Growth_Rep2: 125.61%
[2]; P. falciparum 3D7, 72 h, parasite screen at 2 μg/mL, % growth, replicate 1
  Pf_72h_%Growth_Rep1: 26.60%
[2]; P. falciparum 3D7, 72 h, parasite screen at 2 μg/mL, % growth, replicate 2
  Pf_72h_%Growth_Rep2: 41.09%
[3]; T. gondii, parasite screen at 2 μg/mL, % growth, replicate 1
  Tg_72h_%Growth_Rep1: 8.37%
[3]; T. gondii, parasite screen at 2 μg/mL, % growth, replicate 2
  Tg_72h_%Growth_Rep2: 23.25%

## O=C(O)C1CSC(c2ccccc2O)=N1 (stereo not drawn) [Dihydroaeruginoic acid]
[1]; [18]
  Pf_120h_%Growth_Rep1: 53.55%
[1]; [19]
  Pf_120h_%Growth_Rep2: 57.05%
[2]; [20]
  Pf_72h_%Growth_Rep1: 74.36%
[2]; [21]
  Pf_72h_%Growth_Rep2: 72.53%
[3]; [22]
  Tg_72h_%Growth_Rep1: 51.46%
[3]; [23]
  Tg_72h_%Growth_Rep2: 84.93%

## CCCCc1ccc(C(=O)O)nc1 [Fusaric acid]
[1]; 3D7, 120 h, library screen at 2 μg/mL, 120 h, % growth, replicate 1, read-out: Pf_120h_%Growth_Rep1
  activity at 2 µg/mL: 80.2%
[1]; 3D7, 120 h, library screen at 2 μg/mL, 120 h, % growth, replicate 2, read-out: Pf_120h_%Growth_Rep2
  activity at 2 µg/mL: 85%
[2]; 3D7, 72 h, library screen at 2 μg/mL, 72 h, % growth, replicate 1, read-out: Pf_72h_%Growth_Rep1
  activity at 2 µg/mL: 78%
[2]; 3D7, 72 h, library screen at 2 μg/mL, 72 h, % growth, replicate 2, read-out: Pf_72h_%Growth_Rep2
  activity at 2 µg/mL: 31.2%
[3]; library screen at 2 μg/mL, % growth, replicate 1, read-out: Tg_72h_%Growth_Rep1
  percent parasite growth at 2 µg/mL: 118%
[3]; library screen at 2 μg/mL, % growth, replicate 2, read-out: Tg_72h_%Growth_Rep2
  percent parasite growth at 2 µg/mL: 83.8%

## C/C1=C\[C@@H](C)C/C=C/[C@H]2[C@@H]3O[C@]3(C)[C@@H](C)[C@H]3[C@H](Cc4c[nH]c5ccccc45)NC(=O)[C@]32C(=O)/C=C/C(=O)[C@@H]1O [Chaetoglobosin A]
[1]; 3D7, 120 h, P. falciparum, 120 h, screen at 2 μg/mL, replicate 1, read-out: Pf_120h_%Growth_Rep1
  activity at 2 µg/mL: 17.4%
[1]; 3D7, 120 h, P. falciparum, 120 h, screen at 2 μg/mL, replicate 2, read-out: Pf_120h_%Growth_Rep2
  activity at 2 µg/mL: 22.2%
[2]; 3D7, 72 h, P. falciparum, 72 h, screen at 2 μg/mL, replicate 1, read-out: Pf_72h_%Growth_Rep1
  activity at 2 µg/mL: 10.6%
[2]; 3D7, 72 h, P. falciparum, 72 h, screen at 2 μg/mL, replicate 2, read-out: Pf_72h_%Growth_Rep2
  activity at 2 µg/mL: 0.38%
[3]; [24]
  percent parasite growth at 2 µg/mL: 51.1%
[3]; [25]
  percent parasite growth at 2 µg/mL: 65.4%

## CCCC[C@]1([C@H](/C=C/C(C)=C/C(=O)O)OC(=O)CCC(=O)O)CC[C@]2(CC[C@H](C)[C@@H](C/C=C(C)/C=C/[C@H](O)[C@@H](C)/C=C/C(=O)O)O2)O1 [Reveromycin B]
[1]; 3D7, 120 h, P. falciparum, 120 h, parasite screen 2 μg/mL, % growth, replicate 1, read-out: Pf_120h_%Growth_Rep1
  activity at 2 µg/mL: 78.2%
[1]; 3D7, 120 h, P. falciparum, 120 h, parasite screen 2 μg/mL, % growth, replicate 2, read-out: Pf_120h_%Growth_Rep2
  activity at 2 µg/mL: 133%
[2]; 3D7, 72 h, P. falciparum, 72 h, parasite screen 2 μg/mL, % growth, replicate 1, read-out: Pf_72h_%Growth_Rep1
  activity at 2 µg/mL: 89%
[2]; 3D7, 72 h, P. falciparum, 72 h, parasite screen 2 μg/mL, % growth, replicate 2, read-out: Pf_72h_%Growth_Rep2
  activity at 2 µg/mL: 114%
[3]; [10]
  percent parasite growth at 2 µg/mL: 139%
[3]; [11]
  percent parasite growth at 2 µg/mL: 87.7%

## Cc1nnc2n1-c1sc(CCC(=O)N3CCOCC3)cc1C(c1ccccc1Cl)=NC2 [WEB 2086]
[1]; 3D7, P. falciparum, 120 h, screen at 2 μg/mL, replicate 1, read-out: Pf_120h_%Growth_Rep1
  activity at 2 µg/mL: 157%
[1]; 3D7, P. falciparum, 120 h, screen at 2 μg/mL, replicate 2, read-out: Pf_120h_%Growth_Rep2
  activity at 2 µg/mL: 84.4%
[2]; 3D7, P. falciparum, 72 h, screen at 2 μg/mL, replicate 1, read-out: Pf_72h_%Growth_Rep1
  activity at 2 µg/mL: 87.3%
[2]; 3D7, P. falciparum, 72 h, screen at 2 μg/mL, replicate 2, read-out: Pf_72h_%Growth_Rep2
  activity at 2 µg/mL: 87.4%
[3]; [24]
  percent parasite growth at 2 µg/mL: 91.8%
[3]; [25]
  percent parasite growth at 2 µg/mL: 110%

## Enniatin A
[1]; [18]
  Pf_120h_%Growth_Rep1: 12.21%
[1]; [19]
  Pf_120h_%Growth_Rep2: 16.45%
[2]; [20]
  Pf_72h_%Growth_Rep1: 2.40%
[2]; [21]
  Pf_72h_%Growth_Rep2: -1.22%
[3]; [22]
  Tg_72h_%Growth_Rep1: 2.24%
[3]; [23]
  Tg_72h_%Growth_Rep2: 14.07%

Source: publication PMC12396409, “Screening and hit evaluation of a microbial metabolite library against the pathogenic Plasmodium falciparum and Toxoplasma gondii parasites” (International Journal for Parasitology: Drugs and Drug …, 2025)
